# Reference: patent US20260284208A1, “SYSTEM” (Oxford University Innovation Limited, priority 2023, published 2026)
# System: library of 8,380 IKZF3 degrons (ZF-eGFP/mCherry reporter) in Jurkat cells
# Experiment: Pooled library screen (FACS, NGS, limma voom LogFC of positive vs negative read counts)
# Assay type: cell-based, human
# Outline: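 Degron enrichment was scored by amplicon NGS of gDNA from GFP-low versus other mCherry+ cells, at >600× coverage across three independent transductions. Sorting followed 18 h exposure at 37 °C to thalidomide analog or DMSO, which set the gate; dead cells were excluded with DAPI. Single-copy integration used MOI <0.3.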
smiles,measurement,setting,value
O=C1CCC(N2C(=O)c3ccc(N4CCOCC4)cc3C2=O)C(=O)N1 (centres unmarked) [B03],B03_logFC,"Degron-ID 4175, SEQ ID NO 3945, 46F_47W_49E_50Q_52G_53A_54S_55F_67L",2.767
same,B03_logFC,"Degron-ID 4189, SEQ ID NO 3997, 46F_47W_49E_50V_52G_53A_54L_55F_67L",2.69
same,B03_logFC,"Degron-ID 4212, SEQ ID NO 4019, 46F_47W_49N_50I_52G_53A_54P_55F_67L",2.659
same,B03_logFC,"Degron-ID 4216, SEQ ID NO 3948, 46F_47W_49N_50I_52G_53A_54T_55F_67L",2.757
same,B03_logFC,"Degron-ID 4217, SEQ ID NO 3953, 46F_47W_49N_50I_52G_53A_54V_55F_67L",2.75
same,B03_logFC,"Degron-ID 4265, SEQ ID NO 3969, 46F_47W_49P_50I_52G_53A_54G_55F_67L",2.729
same,B03_logFC,"Degron-ID 4267, SEQ ID NO 4028, 46F_47W_49P_50I_52G_53A_54I_55F_67L",2.643
same,B03_logFC,"Degron-ID 4270, SEQ ID NO 3946, 46F_47W_49P_50I_52G_53A_54M_55F_67L",2.765
same,B03_logFC,"Degron-ID 4279, SEQ ID NO 3996, 46F_47W_49P_50I_52G_53A_54Y_55F_67L",2.691
same,B03_logFC,"Degron-ID 4307, SEQ ID NO 3975, 46F_47W_49P_50V_52G_53A_54I_55F_67L",2.72
same,B03_logFC,"Degron-ID 4366, SEQ ID NO 3950, 46F_47Y_49D_50V_52G_53A_54H_55F_67L",2.757
same,B03_logFC,"Degron-ID 4368, SEQ ID NO 4018, 46F_47Y_49D_50V_52G_53A_54K_55F_67L",2.66
same,B03_logFC,"Degron-ID 4456, SEQ ID NO 4010, 46F_47Y_49N_50I_52G_53A_54T_55F_67L",2.672
same,B03_logFC,"Degron-ID 4503, SEQ ID NO 4007, 46F_47Y_49P_50I_52G_53A_54E_55F_67L",2.675
same,B03_logFC,"Degron-ID 4510, SEQ ID NO 3967, 46F_47Y_49P_50I_52G_53A_54M_55F_67L",2.732
same,B03_logFC,"Degron-ID 4544, SEQ ID NO 4004, 46F_47Y_49P_50V_52G_53A_54F_55F_67L",2.679
same,B03_logFC,"Degron-ID 4559, SEQ ID NO 4033, 46F_47Y_49P_50V_52G_53A_54Y_55F_67L",2.636
same,B03_logFC,"Degron-ID 6474, SEQ ID NO 3991, 46L_47A_49P_50I_52G_53F_54R_55C_67L",2.7
same,B03_logFC,"Degron-ID 6480, SEQ ID NO 4002, 46L_47C_49P_50I_52G_53F_54A_55C_67L",2.685
same,B03_logFC,"Degron-ID 6494, SEQ ID NO 4012, 46L_47C_49P_50I_52G_53F_54R_55C_67L",2.668
same,B03_logFC,"Degron-ID 6496, SEQ ID NO 3983, 46L_47C_49P_50I_52G_53F_54T_55C_67L",2.713
same,B03_logFC,"Degron-ID 6544, SEQ ID NO 3994, 46L_47F_49P_50I_52G_53F_54F_55C_67L",2.694
same,B03_logFC,"Degron-ID 6545, SEQ ID NO 3958, 46L_47F_49P_50I_52G_53F_54G_55C_67L",2.743
same,B03_logFC,"Degron-ID 6547, SEQ ID NO 3973, 46L_47F_49P_50I_52G_53F_54I_55C_67L",2.724
same,B03_logFC,"Degron-ID 6559, SEQ ID NO 3972, 46L_47F_49P_50I_52G_53F_54Y_55C_67L",2.725
same,B03_logFC,"Degron-ID 6579, SEQ ID NO 3987, 46L_47G_49P_50I_52G_53F_54Y_55C_67L",2.704
same,B03_logFC,"Degron-ID 6581, SEQ ID NO 3985, 46L_47H_49P_50I_52G_53F_54C_55C_67L",2.71
same,B03_logFC,"Degron-ID 6593, SEQ ID NO 4008, 46L_47H_49P_50I_52G_53F_54Q_55C_67L",2.674
same,B03_logFC,"Degron-ID 6600, SEQ ID NO 3995, 46L_47I_49P_50I_52G_53F_54A_55C_67L",2.692
same,B03_logFC,"Degron-ID 6715, SEQ ID NO 3949, 46L_47Q_49P_50I_52G_53F_54S_55C_67L",2.757
same,B03_logFC,"Degron-ID 6759, SEQ ID NO 4005, 46L_47S_49P_50I_52G_53F_54Y_55C_67L",2.677
same,B03_logFC,"Degron-ID 6761, SEQ ID NO 4009, 46L_47T_49P_50I_52G_53F_54C_55C_67L",2.672
same,B03_logFC,"Degron-ID 6793, SEQ ID NO 3980, 46L_47V_49P_50I_52G_53F_54Q_55C_67L",2.717
same,B03_logFC,"Degron-ID 6803, SEQ ID NO 4032, 46L_47W_49P_50I_52G_53F_54E_55C_67L",2.637
same,B03_logFC,"Degron-ID 6807, SEQ ID NO 3992, 46L_47W_49P_50I_52G_53F_54I_55C_67L",2.695
same,B03_logFC,"Degron-ID 7568, SEQ ID NO 3954, 46F_47W_49E_50I_52G_53R_54K_55F_67L",2.75
same,B03_logFC,"Degron-ID 7574, SEQ ID NO 3993, 46F_47W_49E_50I_52G_53R_54R_55F_67L",2.695
same,B03_logFC,"Degron-ID 7699, SEQ ID NO 3976, 46L_47F_49E_50I_52G_53F_54Y_55C_67L",2.72
same,B03_logFC,"Degron-ID 7894, SEQ ID NO 3947, 46L_47S_49E_50I_52G_53F_54R_55C_67L",2.76
same,B03_logFC,"Degron-ID 7920, SEQ ID NO 3990, 46L_47V_49E_50I_52G_53F_54A_55C_67L",2.702
same,B03_logFC,"Degron-ID 7971, SEQ ID NO 3955, 46L_47Y_49E_50I_52G_53F_54N_55C_67L",2.749
same,B03_logFC,degron 1074 (SEQ ID NO 3496) 46F_47F_49E_50V_52G_53A_54R_55F_67L,3.71
same,B03_logFC,degron 4088 (SEQ ID NO 3502) 46F_47W_49D_50I_52G_53A_54K_55F_67L,3.696
same,B03_logFC,degron 4091 (SEQ ID NO 3497) 46F_47W_49D_50I_52G_53A_54N_55F_67L,3.708
same,B03_logFC,degron 4395 (SEQ ID NO 3500) 46F_47Y_49E_50I_52G_53A_54S_55F_67L,3.7
same,B03_logFC,degron 4420 (SEQ ID NO 3499) 46F_47Y_49E_50V_52G_53A_54A_55F_67L,3.704
same,B03_logFC,degron 4551 (SEQ ID NO 3503) 46F_47Y_49P_50V_52G_53A_54N_55F_67L,3.692
same,B03_logFC,degron 6814 (SEQ ID NO 3498) 46L_47W_49P_50I_52G_53F_54R_55C_67L,3.704
same,B03_logFC,degron 7973 (SEQ ID NO 3495) 46L_47Y_49E_50I_52G_53F_54Q_55C_67L,3.711
same,B03_logFC,degron 7975 (SEQ ID NO 3501) 46L_47Y_49E_50I_52G_53F_54S_55C_67L,3.698
